Assay results from ChEMBL document CHEMBL1142959, “Semisynthetic approaches to laspartomycin analogues” (2007).
≈ marks a conversion by molar mass, not a printed value.

Key:
Format in all cases: functional
Staphylococcus aureus [1] = assay: Antimicrobial activity against methicillin-resistant Staphylococcus aureus ATCC 43300 by broth microdilution method
Staphylococcus aureus [2] = assay: Antimicrobial activity against methicillin-sensitive Staphylococcus aureus Smith ATCC 19636 by tube dilution method
Enterococcus faecalis = assay: Antimicrobial activity against vancomycin-sensitive Enterococcus faecalis ATCC 29212 by broth microdilution method
Enterococcus faecium = assay: Antimicrobial activity against vancomycin/multidrug-resistant Enterococcus faecium ATCC 51559 by broth microdilution method
[3] = test system: Staphylococcus epidermidis; assay: Antimicrobial activity against methicillin-resistant Staphylococcus epidermidis ATCC 51625 by broth microdilution method
Staphylococcus aureus [4] = assay: Antimicrobial activity against vancomycin-intermediate Staphylococcus aureus CDC HIP 5836 by broth microdilution method
Staphylococcus aureus [5] = assay: Antimicrobial activity against methicillin-sensitive Staphylococcus aureus Smith ATCC 19636 by broth microdilution method

CCCCCCCCCCCCCCC(=O)N[C@@H](CC(=O)O)C(=O)N[C@H]1CNC(=O)[C@@H]2CCCN2C(=O)[C@H]([C@H](C)CC)NC(=O)[C@H]([C@@H](C)O)NC(=O)CNC(=O)[C@H](CC(=O)O)NC(=O)CNC(=O)C(CC(=O)O)NC(=O)CNC(=O)[C@@H]2CCCCN2C1=O (single isomer, unassigned)
MIC (Staphylococcus aureus [1]): 4 mg/L (≈ 3.2 µM) | MIC (Staphylococcus aureus [2]): 2 mg/L (≈ 1.6 µM) | MIC (Enterococcus faecalis): 4 mg/L (≈ 3.2 µM) | MIC (Enterococcus faecium): 4 mg/L (≈ 3.2 µM) | MIC [3]: 8 mg/L (≈ 6.4 µM) | MIC (Staphylococcus aureus [4]): 16 mg/L (≈ 12.8 µM) | MIC (Staphylococcus aureus [5]): 4 mg/L (≈ 3.2 µM)
